Results from publication PMC11272821, “Mechanistic safety assessment via multi-omic characterisation of systemic pathway perturbations following in vivo MAT2A inhibition” (Archives of Toxicology, 2024).

Columns and labels:
[1] = target: T1, Adenosine Transporter (Homo sapiens, UniProt Q99808); assay: Functional assay; format: cell-based
T1 construct: Eurofins
Procedure: (§1) Secondary pharmacology assays were performed at Eurofins using standard experimental techniques against a total of 86 targets across a broad pharmacological space. Assay details along with experimental protocols are described at https://www.eurofinsdiscoveryservices.com. […] Assays measuring substrate turnover or phosphorylation by isolated proteins were used for kinase and enzyme targets, allowing direct determination of the mode of action of the compounds. […] Assays were run in eight points concentration response mode with half log dilutions and IC50, EC50 or Ki (Cheng and Prusoff [1973]) values determined.

[2] = target: T2, 5-HT2B receptor (Homo sapiens, UniProt P41595); assay: Radioligand binding assay
T2 construct: Eurofins
T2 sequence (P41595 whole entry): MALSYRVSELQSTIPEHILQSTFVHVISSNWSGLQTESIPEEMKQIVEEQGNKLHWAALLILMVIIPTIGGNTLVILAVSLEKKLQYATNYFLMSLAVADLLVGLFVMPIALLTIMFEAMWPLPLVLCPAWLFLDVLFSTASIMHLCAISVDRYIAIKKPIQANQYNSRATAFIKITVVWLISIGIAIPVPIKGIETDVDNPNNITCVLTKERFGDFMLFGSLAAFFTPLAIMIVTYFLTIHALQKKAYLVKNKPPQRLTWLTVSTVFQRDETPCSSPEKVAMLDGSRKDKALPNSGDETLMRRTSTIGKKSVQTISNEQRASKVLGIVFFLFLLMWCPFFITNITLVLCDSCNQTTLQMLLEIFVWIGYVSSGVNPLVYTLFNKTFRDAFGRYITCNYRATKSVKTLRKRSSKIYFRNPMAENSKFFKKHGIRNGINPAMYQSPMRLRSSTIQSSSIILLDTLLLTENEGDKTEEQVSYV
Procedure: as §1

[3] = target: T3, CCK1 cholecystokinin receptor (Homo sapiens, UniProt P32238); assay: Radioligand binding assay
T3 construct: Eurofins
T3 sequence (P32238 whole entry): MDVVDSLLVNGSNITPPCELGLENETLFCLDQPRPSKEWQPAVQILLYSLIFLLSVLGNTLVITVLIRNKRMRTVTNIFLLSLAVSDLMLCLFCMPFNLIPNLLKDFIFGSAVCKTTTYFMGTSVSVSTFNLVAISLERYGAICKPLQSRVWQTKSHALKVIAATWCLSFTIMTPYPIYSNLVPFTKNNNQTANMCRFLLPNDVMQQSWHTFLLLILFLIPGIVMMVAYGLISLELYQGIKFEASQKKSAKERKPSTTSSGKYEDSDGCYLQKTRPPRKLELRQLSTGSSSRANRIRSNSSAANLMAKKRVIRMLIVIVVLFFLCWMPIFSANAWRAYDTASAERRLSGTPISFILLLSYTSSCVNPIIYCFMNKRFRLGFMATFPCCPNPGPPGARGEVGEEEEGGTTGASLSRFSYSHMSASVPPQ
Procedure: as §1

[4] = target: T4, κ opioid receptor (Homo sapiens, UniProt P41145); assay: Radioligand binding assay
T4 construct: Eurofins
Procedure: as §1

[5] = target: T5, A2A adenosine receptor (Homo sapiens, UniProt P29274); assay: Radioligand binding assay
T5 construct: Eurofins
Procedure: as §1

[6] = target: T6, AT1 angiotensin receptor (Homo sapiens, UniProt P30556); assay: Radioligand binding assay
T6 construct: Eurofins
T6 sequence (P30556 whole entry): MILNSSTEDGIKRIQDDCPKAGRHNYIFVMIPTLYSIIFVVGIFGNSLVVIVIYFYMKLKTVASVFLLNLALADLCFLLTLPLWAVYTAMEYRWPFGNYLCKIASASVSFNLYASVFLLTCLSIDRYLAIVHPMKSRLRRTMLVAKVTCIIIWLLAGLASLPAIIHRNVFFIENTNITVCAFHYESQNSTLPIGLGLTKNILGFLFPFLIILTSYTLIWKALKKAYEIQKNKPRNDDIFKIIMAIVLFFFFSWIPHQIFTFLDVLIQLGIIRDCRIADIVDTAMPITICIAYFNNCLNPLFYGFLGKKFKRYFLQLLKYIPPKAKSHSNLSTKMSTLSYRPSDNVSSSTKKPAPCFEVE
Procedure: as §1

[7] = target: T7, α1A adrenoceptor (Homo sapiens, UniProt P35348); assay: Radioligand binding assay
T7 construct: Eurofins
T7 sequence (P35348 whole entry): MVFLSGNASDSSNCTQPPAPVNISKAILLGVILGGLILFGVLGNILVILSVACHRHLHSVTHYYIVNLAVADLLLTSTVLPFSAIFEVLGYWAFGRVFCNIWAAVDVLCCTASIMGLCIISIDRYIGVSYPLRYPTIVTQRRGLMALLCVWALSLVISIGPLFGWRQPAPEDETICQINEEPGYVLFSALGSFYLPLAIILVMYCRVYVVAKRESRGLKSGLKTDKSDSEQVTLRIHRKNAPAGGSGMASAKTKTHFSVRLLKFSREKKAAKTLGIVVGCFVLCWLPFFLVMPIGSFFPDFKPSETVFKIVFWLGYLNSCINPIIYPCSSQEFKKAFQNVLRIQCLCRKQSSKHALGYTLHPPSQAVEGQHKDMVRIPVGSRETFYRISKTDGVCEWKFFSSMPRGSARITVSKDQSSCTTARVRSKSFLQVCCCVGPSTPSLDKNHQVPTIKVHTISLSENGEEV
Procedure: as §1

[8] = target: T8, A1 adenosine receptor (Homo sapiens, UniProt P30542); assay: Radioligand binding assay
T8 construct: purchased Eurofins
T8 sequence (P30542 whole entry): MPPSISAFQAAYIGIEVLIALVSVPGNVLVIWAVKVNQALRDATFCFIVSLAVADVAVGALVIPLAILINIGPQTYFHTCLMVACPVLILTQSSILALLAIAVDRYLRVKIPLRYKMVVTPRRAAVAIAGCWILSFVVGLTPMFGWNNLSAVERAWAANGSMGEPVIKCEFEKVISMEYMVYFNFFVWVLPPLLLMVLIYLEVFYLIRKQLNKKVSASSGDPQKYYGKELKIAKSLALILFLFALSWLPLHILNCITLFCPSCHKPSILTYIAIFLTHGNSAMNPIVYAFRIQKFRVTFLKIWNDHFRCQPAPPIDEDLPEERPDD
Procedure: as §1

[9] = target: T9, 5-HT7 receptor (Homo sapiens, UniProt P34969); assay: Radioligand binding assay
T9 construct: Eurofins
Procedure: as §1

[10] = target: T10, α1B adrenoceptor (Homo sapiens, UniProt P35368); assay: Radioligand binding assay
T10 construct: Eurofins
T10 sequence (P35368 1-520): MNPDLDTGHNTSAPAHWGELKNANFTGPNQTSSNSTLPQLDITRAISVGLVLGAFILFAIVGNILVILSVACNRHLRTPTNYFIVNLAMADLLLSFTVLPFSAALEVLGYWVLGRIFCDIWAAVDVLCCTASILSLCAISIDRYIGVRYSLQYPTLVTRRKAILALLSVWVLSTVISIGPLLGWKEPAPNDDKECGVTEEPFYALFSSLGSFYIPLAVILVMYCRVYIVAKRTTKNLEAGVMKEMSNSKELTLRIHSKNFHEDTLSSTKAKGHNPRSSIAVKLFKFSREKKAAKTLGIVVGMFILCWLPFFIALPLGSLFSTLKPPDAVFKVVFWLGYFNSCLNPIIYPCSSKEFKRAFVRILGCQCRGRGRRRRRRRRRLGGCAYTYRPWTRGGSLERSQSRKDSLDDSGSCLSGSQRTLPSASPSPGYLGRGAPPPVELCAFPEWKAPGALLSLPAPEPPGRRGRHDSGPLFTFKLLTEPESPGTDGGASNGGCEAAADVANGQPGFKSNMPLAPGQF
Procedure: as §1

[11] = target: T11, Glucocorticoid Receptor NR3C1 (Homo sapiens, UniProt P04150); assay: Radioligand binding assay
T11 construct: Eurofins
Procedure: as §1

[12] = target: T12, SST4 somatostatin receptor (Homo sapiens, UniProt P31391); assay: Radioligand binding assay
T12 construct: Eurofins
T12 sequence (P31391 whole entry): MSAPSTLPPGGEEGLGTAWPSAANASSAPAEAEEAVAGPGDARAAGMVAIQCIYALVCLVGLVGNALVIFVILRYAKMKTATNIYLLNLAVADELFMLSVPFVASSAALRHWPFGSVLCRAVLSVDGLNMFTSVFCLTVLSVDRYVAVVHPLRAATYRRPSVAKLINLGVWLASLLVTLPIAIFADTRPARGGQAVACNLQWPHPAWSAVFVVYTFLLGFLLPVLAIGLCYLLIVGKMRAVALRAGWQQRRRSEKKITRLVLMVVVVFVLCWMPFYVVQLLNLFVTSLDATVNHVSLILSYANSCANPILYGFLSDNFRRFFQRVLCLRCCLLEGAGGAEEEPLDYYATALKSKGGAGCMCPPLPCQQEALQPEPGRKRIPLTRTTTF
Procedure: as §1

[13] = target: T13, δ opioid Receptor (Homo sapiens, UniProt P41143); assay: Radioligand binding assay
T13 construct: Eurofins
T13 sequence (P41143 whole entry): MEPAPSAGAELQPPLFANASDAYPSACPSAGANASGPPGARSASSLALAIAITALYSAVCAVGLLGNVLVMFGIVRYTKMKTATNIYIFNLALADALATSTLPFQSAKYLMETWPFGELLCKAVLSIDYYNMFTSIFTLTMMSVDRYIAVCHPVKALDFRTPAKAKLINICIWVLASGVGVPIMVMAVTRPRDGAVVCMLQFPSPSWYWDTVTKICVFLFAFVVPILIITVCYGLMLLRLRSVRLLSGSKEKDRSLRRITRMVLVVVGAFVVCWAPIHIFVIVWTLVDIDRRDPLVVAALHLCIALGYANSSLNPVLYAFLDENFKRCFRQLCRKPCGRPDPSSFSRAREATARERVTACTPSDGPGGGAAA
Procedure: as §1

[14] = target: T14, CB1 cannabinoid receptor (Homo sapiens, UniProt P21554); assay: Radioligand binding assay
T14 construct: purchased Eurofins
Procedure: as §1

[15] = target: T15, Noradrenaline Transporter (NET) (Homo sapiens, UniProt P23975); assay: Radioligand binding assay
T15 construct: Eurofins
Procedure: as §1

[16] = target: T16, Peroxisome proliferator-activated receptor-γ (Homo sapiens, UniProt P37231); assay: Radioligand binding assay
T16 construct: Eurofins
Procedure: as §1

[17] = target: T17, NK1 neurokinin receptor (Homo sapiens, UniProt P25103); assay: Radioligand binding assay
T17 construct: Eurofins
Procedure: as §1

[18] = target: T18, M2 muscarinic receptor (Homo sapiens, UniProt P08172); assay: Radioligand binding assay
T18 construct: Eurofins
T18 sequence (P08172 1-466): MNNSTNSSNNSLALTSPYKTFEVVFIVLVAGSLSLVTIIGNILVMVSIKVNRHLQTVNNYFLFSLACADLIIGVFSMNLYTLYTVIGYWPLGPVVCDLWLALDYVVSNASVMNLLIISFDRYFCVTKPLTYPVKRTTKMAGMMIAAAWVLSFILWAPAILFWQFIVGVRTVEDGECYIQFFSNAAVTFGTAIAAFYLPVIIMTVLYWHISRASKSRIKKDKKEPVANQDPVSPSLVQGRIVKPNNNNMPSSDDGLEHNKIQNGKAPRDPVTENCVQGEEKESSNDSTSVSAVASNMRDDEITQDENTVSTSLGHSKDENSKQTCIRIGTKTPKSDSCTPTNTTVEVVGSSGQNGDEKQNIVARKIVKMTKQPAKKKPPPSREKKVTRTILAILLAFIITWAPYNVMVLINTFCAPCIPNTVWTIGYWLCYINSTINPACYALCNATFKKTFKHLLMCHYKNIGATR
Procedure: as §1

[19] = set-up: method as in Atkinson et al. [2024]; settings: ref Atkinson et al. [2024]; cited from earlier work
[20] = system: THP-1; assay: THP1 cytotoxicity; format: cell-based; settings: read-out: THP-1 Cytotox IC50
Text: (§2) Full curve IC50 (µM) for hERG (human ether-a-go-go-related gene) and the cardiac ion channel panel (sodium and potassium ion channels; Nav1.5, IKs, Kv4.3), along with the L-type Calcium channel (Cav-1.2 Ver; verapamil, DIL; diltiazem), HepG2 C3A 3D spheroids, HepG2 C3A (2D cultures in glucose or galactose media), and THP1 cytotoxicity.

[21] = system: HCT116 MTAP KO cells; assay: HCT116 cell SAM assay, MTAP KO; format: cell-based
Text: The structure and in vitro properties of the compound are shown in Table 1 together with potency in the HCT116 isogenic cell line (MTAP WT and KO) and in the MAT2A biochemical assay (SAM endpoint).

[22] = target: NaV1.5 (Homo sapiens, UniProt Q14524); assay: Cardiac ion channel panel; format: cell-based; settings: Full curve
Text: as §2

[23] = target: Kv4.3 (Homo sapiens, UniProt Q9UK17); assay: Cardiac ion channel panel; format: cell-based; settings: Full curve
Kv4.3, sequence (Q9UK17 whole entry): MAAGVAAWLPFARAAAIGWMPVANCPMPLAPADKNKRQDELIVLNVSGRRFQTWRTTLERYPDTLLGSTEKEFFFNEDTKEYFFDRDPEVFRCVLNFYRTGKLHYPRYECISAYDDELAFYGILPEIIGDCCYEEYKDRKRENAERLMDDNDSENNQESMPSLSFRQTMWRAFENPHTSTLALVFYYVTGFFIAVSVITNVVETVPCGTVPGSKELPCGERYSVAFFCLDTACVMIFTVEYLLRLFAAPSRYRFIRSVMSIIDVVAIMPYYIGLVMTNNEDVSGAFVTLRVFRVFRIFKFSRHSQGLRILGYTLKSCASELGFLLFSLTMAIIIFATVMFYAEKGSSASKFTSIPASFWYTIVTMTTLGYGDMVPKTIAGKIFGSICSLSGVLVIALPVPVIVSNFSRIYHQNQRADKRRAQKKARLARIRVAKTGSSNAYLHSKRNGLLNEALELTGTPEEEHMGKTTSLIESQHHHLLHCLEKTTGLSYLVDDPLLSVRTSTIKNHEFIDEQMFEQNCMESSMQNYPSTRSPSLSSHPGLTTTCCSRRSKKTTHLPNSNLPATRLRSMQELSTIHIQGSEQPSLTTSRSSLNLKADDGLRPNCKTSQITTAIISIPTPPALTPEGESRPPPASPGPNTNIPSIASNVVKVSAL
Text: as §2

[24] = target: IKs (Homo sapiens, UniProt P51787); assay: Cardiac ion channel panel; format: cell-based; settings: Full curve
IKs, sequence (P51787 whole entry): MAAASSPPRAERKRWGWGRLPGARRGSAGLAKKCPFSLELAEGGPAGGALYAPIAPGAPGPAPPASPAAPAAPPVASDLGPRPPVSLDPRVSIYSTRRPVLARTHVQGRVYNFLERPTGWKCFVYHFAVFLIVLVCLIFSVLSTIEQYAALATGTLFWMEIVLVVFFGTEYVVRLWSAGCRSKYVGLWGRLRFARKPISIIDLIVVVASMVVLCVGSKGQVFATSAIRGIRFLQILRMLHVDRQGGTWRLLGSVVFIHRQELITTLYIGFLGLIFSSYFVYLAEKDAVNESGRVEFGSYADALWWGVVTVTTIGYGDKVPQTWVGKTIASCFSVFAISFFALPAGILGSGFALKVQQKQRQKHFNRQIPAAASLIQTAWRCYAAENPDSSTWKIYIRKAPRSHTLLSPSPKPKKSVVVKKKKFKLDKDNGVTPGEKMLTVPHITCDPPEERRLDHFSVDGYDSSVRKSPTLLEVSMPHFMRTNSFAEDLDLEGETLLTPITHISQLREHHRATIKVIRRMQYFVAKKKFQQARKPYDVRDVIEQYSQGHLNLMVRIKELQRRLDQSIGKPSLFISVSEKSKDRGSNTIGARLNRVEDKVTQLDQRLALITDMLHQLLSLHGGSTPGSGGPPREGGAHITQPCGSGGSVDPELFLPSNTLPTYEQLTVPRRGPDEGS
Text: as §2

T1 sequence (Q99808 2-456 limits assumed): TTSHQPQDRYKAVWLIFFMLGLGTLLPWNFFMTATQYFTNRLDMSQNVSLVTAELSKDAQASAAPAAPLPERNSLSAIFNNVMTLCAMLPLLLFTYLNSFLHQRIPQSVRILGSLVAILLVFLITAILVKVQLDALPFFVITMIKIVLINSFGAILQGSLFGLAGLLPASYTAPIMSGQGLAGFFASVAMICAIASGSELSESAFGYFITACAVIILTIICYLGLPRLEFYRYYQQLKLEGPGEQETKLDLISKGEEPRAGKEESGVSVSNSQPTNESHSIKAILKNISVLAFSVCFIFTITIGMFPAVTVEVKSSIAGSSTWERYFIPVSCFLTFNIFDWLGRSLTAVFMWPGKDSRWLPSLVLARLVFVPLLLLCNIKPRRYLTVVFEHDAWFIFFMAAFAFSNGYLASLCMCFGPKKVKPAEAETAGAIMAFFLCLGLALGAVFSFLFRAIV

## Cn1cc2cc(-c3cc4[nH]nc(C5CC5)c4n(-c4ccc(OC(F)F)cc4)c3=O)ccc2n1 [AZ’9567]
[1]
  Pharmacological mode of action: Antagonist
[2]
  Ki: 32.4 µM
[3]
  Ki: 25.3 µM
[4]
  Ki: 6 µM
[5]
  Ki: 2.2 µM
[6]
  Ki: 12.7 µM
[7]
  Ki: 12.7 µM
[8]
  Ki: 2.6 µM
[9]
  Ki: 2.9 µM
[10]
  Ki: 28.9 µM
[11]
  Ki: 24.8 µM
[12]
  Ki: 50.6 µM
[13]
  Ki: 12.8 µM
[14]
  Ki: 30.3 µM
[15]
  Ki: 33.3 µM
[16]
  Ki: 33.3 µM
[17]
  Ki: 10.2 µM
[18]
  Ki: 1.8 µM
[19]
  brain penetrance Kpu,u: 0.03 ± 0.01
[20]
  IC50: > 50 µM
[21]
  HCT116 cell SAM MTAP KO pIC50: 8.9
[22]
  IC50: > 40 µM
[23]
  IC50: > 40 µM
[24]
  IC50: > 33.3 µM
